The compounds below were run against T1, Avi-KRAS G12C (2-169) GTP/RAF1 RBD-3xFLAG (51-131) (Homo sapiens, UniProt P01116, G12C) (assay: Raf1-KRAS G12C-GTP disruption HTRF assay (Biological Example 3)). Conditions: KRAS G12C, GTP-loaded.
T1 construct: Avi-KRAS G12C (2-169)
T1 sequence (P01116 2-169 isoform P01116-2 G12C): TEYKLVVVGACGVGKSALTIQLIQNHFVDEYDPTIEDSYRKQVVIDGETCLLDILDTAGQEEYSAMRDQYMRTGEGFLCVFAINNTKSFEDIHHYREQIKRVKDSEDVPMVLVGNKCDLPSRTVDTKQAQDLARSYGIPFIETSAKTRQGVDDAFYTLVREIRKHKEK
Assay type: binding
In short: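 An HTRF assay measured disruption of 50 nM Avi-KRAS (2-169)-GTP (WT, G12C, G12D or G12V) bound to RAF1 RBD-3xFLAG (51-131). Buffer was Tris pH 7.5 with 5 mM MgCl2 and 10% DMSO. Compounds (30–0.005 μM, 3-fold, 10 points) were incubated 1 h at room temperature, and activity is given as % of DMSO.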
`CCN(c1nc(OC[C@@]23CCCN2C[C@H](F)C3)nc2c(F)c(-c3ccc(F)c4sc(N)c(C#N)c34)c(C(F)(F)F)cc12)[C@H]1CCN(C(=O)C2C[C@@H]2F)C1` (stereo partly shown) [Compound 692] showed an IC50 of at most 100 nM. Compound `CCN(c1nc(OC[C@@]23CCCN2C[C@H](F)C3)nc2c(F)c(-c3ccc(F)c4sc(N)c(C#N)c34)c(C(F)(F)F)cc12)[C@H]1CC(=O)N(C)C1` (atropisomer, axis not shown) [Compound 614] has an IC50 of 100 to 1000 nM. Work on `CCN(c1nc(OC[C@@]23CCCN2C[C@H](F)C3)nc2c(F)c(-c3ccc(F)c4sc(N)c(C#N)c34)c(C(F)(F)F)cc12)[C@H]1CCN(C(=O)CC(F)F)C1` (atropisomer, axis not shown) [Compound 611] yielded an IC50 of at most 100 nM. `CCN(c1nc(OC[C@@]23CCCN2C[C@H](F)C3)nc2c(F)c(-c3ccc(F)c4sc(N)c(C#N)c34)c(C(F)(F)F)cc12)[C@H]1CCN(C(=O)[C@H]2CCO2)C1` (atropisomer, axis not shown) [Compound 577] was tested, and the IC50 was at most 100 nM. In the case of `CCN(c1nc(OC[C@]23CCCN2C[C@H](F)C3)nc2c(F)c(-c3ccc(F)c4sc(N)c(C#N)c34)c(C(F)(F)F)cc12)[C@H]1CCN(C(=O)C(C)C)C1` [Compound 705], the IC50 is reported as 100 to 1000 nM. Work on `C=C(C)C(=O)N1CC[C@H](N(CC)c2nc(OC[C@@]34CCCN3C[C@H](F)C4)nc3c(F)c(-c4ccc(F)c5sc(N)c(C#N)c45)c(C(F)(F)F)cc23)C1` (atropisomer, axis not shown) [Compound 673] yielded an IC50 of at most 100 nM. `CC(=O)N1CC[C@H](N(c2nc(OC[C@@]34CCCN3C[C@H](F)C4)nc3c(F)c(-c4ccc(F)c5sc(N)c(C#N)c45)c(C(F)(F)F)cc23)C2CC2)C1` (atropisomer, axis not shown) [Compound 608] was tested, and the IC50 was 100 to 1000 nM. `CCN(c1nc(OC[C@@]23CCCN2C[C@H](F)C3)nc2c(F)c(-c3ccc(F)c4sc(N)c(C#N)c34)c(C(F)(F)F)cc12)[C@H]1CCN(C(=O)N(C)C)[C@@H]1C` (atropisomer, axis not shown) [Compound 749] showed an IC50 of at most 100 nM. In the case of `CCN(c1nc(OC[C@@]23CCCN2C[C@H](F)C3)nc2c(F)c(-c3ccc(F)c4sc(N)c(C#N)c34)c(C(F)(F)F)cc12)[C@H]1CCN(C(=O)N2CC(OC)C2)C1` (atropisomer, axis not shown) [Compound 607], the IC50 is reported as at most 100 nM. Work on `CCN(c1nc(OC[C@@]23CCCN2C[C@H](F)C3)nc2c(F)c(-c3ccc(F)c4sc(N)c(C#N)c34)c(C(F)(F)F)cc12)[C@H]1C[C@@H](C)N(C(=O)[C@H]2CCO2)C1` (atropisomer, axis not shown) [Compound 752] yielded an IC50 of 100 to 1000 nM. In the case of `CCN(c1nc(OC[C@@]23CCCN2C[C@H](F)C3)nc2c(F)c(-c3ccc(F)c4sc(N)c(C#N)c34)c(C(F)(F)F)cc12)[C@H]1CCN(C(=O)OC)C1` [Compound 394], the IC50 is reported as 100 to 1000 nM. In the case of `CCN(c1nc(OC[C@@]23CCCN2C[C@H](F)C3)nc2c(F)c(-c3ccc(F)c4sc(N)c(C#N)c34)c(C(F)(F)F)cc12)[C@H]1CCN(C(=O)C2CN(C(C)=O)C2)C1` (atropisomer, axis not shown) [Compound 638], the IC50 is reported as at most 100 nM. For `CCN1C[C@@H](N(C)c2nc(OC[C@@]34CCCN3C[C@H](F)C4)nc3c(F)c(-c4ccc(F)c5sc(N)c(C#N)c45)c(C(F)(F)F)cc23)CC1=O` (atropisomer, axis not shown) [Compound 636], the IC50 was 100 to 1000 nM. With `CCN(c1nc(OC[C@@]23CCCN2C[C@H](F)C3)nc2c(F)c(-c3ccc(F)c4sc(N)c(C#N)c34)c(C(F)(F)F)cc12)[C@H]1CCN(C(=O)[C@@H]2CCO2)C1` (atropisomer, axis not shown) [Compound 603] the IC50 was at most 100 nM. For `CCN(c1nc(OC[C@@H]2C[C@@H](OC)CN2C)nc2c(F)c(-c3ccc(F)c4sc(N)c(C#N)c34)c(C(F)(F)F)cc12)[C@H]1CCN(C(=O)C(C)C)C1` [Compound 706], the IC50 was 1000 to 10000 nM. Work on `CCN(c1nc(OC[C@@]23CCCN2C[C@H](F)C3)nc2c(F)c(-c3ccc(F)c4sc(N)c(C#N)c34)c(C(F)(F)F)cc12)[C@H]1CCN(C(=O)C2CC2(F)F)C1` (stereo partly shown) [Compound 581] yielded an IC50 of at most 100 nM. Compound `CCC(=O)N1CC[C@@H](N(C)c2nc(OC[C@@]34CCCN3C[C@H](F)C4)nc3c(F)c(-c4ccc(F)c5sc(N)c(C#N)c45)c(C(F)(F)F)cc23)[C@H]1C` (atropisomer, axis not shown) [Compound 335] has an IC50 of 100 to 1000 nM. In the case of `C[C@H](c1cccnc1N)N(C)c1nc(OC[C@@]23CCCN2C[C@H](F)C3)nc2c(F)c(-c3ccc(F)c4sc(N)c(C#N)c34)c(C(F)(F)F)cc12` (atropisomer, axis not shown) [Compound 600], the IC50 is reported as at most 100 nM. In the case of `Cc1c(C(=O)N2CCCC2)nn2c1CN(c1nc(OCC34CCCN3CC(F)C4)nc3c(F)c(-c4ccc(F)c5sc(N)c(C#N)c45)c(C(F)(F)F)cc13)CC2` (stereo not shown) [Compound 744], the IC50 is reported as 100 to 1000 nM. `N#Cc1c(N)sc2c(F)ccc(-c3c(C(F)(F)F)cc4c(N5CCn6nc(C(=O)N7CCOCC7)cc6C5)nc(OCC56CCCN5CC(F)C6)nc4c3F)c12` (stereo not shown) [Compound 646] gave an IC50 of 100 to 1000 nM. `CC(=O)N1CC[C@H](N(CCF)c2nc(OC[C@@]34CCCN3C[C@H](F)C4)nc3c(F)c(-c4ccc(F)c5sc(N)c(C#N)c45)c(C(F)(F)F)cc23)C1` (atropisomer, axis not shown) [Compound 622] gave an IC50 of 100 to 1000 nM. In the case of `CCN(c1nc(OC[C@@]23CCCN2C[C@H](F)C3)nc2c(F)c(-c3ccc(F)c4sc(N)c(C#N)c34)c(C(F)(F)F)cc12)[C@H]1C[C@@H]2CN(C)C(=O)N2C1` (atropisomer, axis not shown) [Compound 605], the IC50 is reported as 100 to 1000 nM. `CCN(c1nc(OC[C@@]23CCCN2C[C@H](F)C3)nc2c(F)c(-c3ccc(F)c4sc(N)c(C#N)c34)c(C(F)(F)F)cc12)[C@H]1CCN(C(=O)O[C@@H]2CCOC2)C1` (atropisomer, axis not shown) [Compound 683] was tested, and the IC50 was at most 100 nM. `CCN(c1nc(OC[C@@]23CCCN2C[C@H](F)C3)nc2c(F)c(-c3ccc(F)c4sc(N)c(C#N)c34)c(C(F)(F)F)cc12)[C@H]1CC(=O)N(C2CC2)C1` (atropisomer, axis not shown) [Compound 615] showed an IC50 of at most 100 nM. With `CCN(c1nc(OC[C@@]23CCCN2C[C@H](F)C3)nc2c(F)c(-c3ccc(F)c4sc(N)c(C#N)c34)c(C(F)(F)F)cc12)[C@H]1CC(=O)N(CC(F)F)C1` (atropisomer, axis not shown) [Compound 613] the IC50 was at most 100 nM. `[2H]C1([2H])O[C@@H]2C[C@H]1N(c1nc(OC[C@@]34CCCN3C[C@H](F)C4)nc3c(F)c(-c4ccc(F)c5sc(N)c(C#N)c45)c(C(F)(F)F)cc13)C2` [Compound 371] showed an IC50 of 1000 to 10000 nM. `CCN(c1nc(OC[C@@]23CCCN2C[C@H](F)C3)nc2c(F)c(-c3ccc(F)c4sc(N)c(C#N)c34)c(C(F)(F)F)cc12)[C@H]1CCN(C(=O)c2ccns2)C1` (atropisomer, axis not shown) [Compound 726] showed an IC50 of 100 to 1000 nM. `CCN(c1nc(OC[C@@]23CCCN2C[C@H](F)C3)nc2c(F)c(-c3ccc(F)c4sc(N)c(C#N)c34)c(C(F)(F)F)cc12)[C@H]1CCN(C(=O)N2CCN(C(C)=O)CC2)C1` (atropisomer, axis not shown) [Compound 619] was tested, and the IC50 was 100 to 1000 nM. In the case of `CCN(c1nc(OC[C@@]23CCCN2C[C@H](F)C3)nc2c(F)c(-c3ccc(F)c4sc(N)c(C#N)c34)c(C(F)(F)F)cc12)[C@@H]1CC(=O)N(C2CC2)C1` (atropisomer, axis not shown) [Compound 703], the IC50 is reported as 1000 to 10000 nM. For `CCN(c1nc(OC[C@@]23CCCN2C[C@H](F)C3)nc2c(F)c(-c3ccc(F)c4sc(N)c(C#N)c34)c(C(F)(F)F)cc12)[C@H]1C[C@H]2CCC(=O)N2C1` (atropisomer, axis not shown; (aR)) [Compound 573, 2-amino-4-((S)-4-(ethyl((2S,7aR)-5-oxohexahydro-1H-pyrrolizin-2-yl)amino)-8-fluoro-2-(((2R,7aS)-2-fluorotetrahydro-1H-pyrrolizin-7a(5H)-yl)methoxy)-6-(trifluoromethyl)quinazolin-7-yl)-7-fluorobenzo[b]thiophene-3-carbonitrile], the IC50 was at most 100 nM. For `C[C@@H]1[C@H](N(C)c2nc(OC[C@@]34CCCN3C[C@H](F)C4)nc3c(F)c(-c4ccc(F)c5sc(N)c(C#N)c45)c(C(F)(F)F)cc23)CCN1C(=O)C1CC1` (atropisomer, axis not shown) [Compound 333], the IC50 was 100 to 1000 nM. In the case of `N#Cc1c(N)sc2c(F)ccc(-c3c(C(F)(F)F)cc4c(N(C5CC5)[C@H]5CCS(=O)(=O)C5)nc(OC[C@@]56CCCN5C[C@H](F)C6)nc4c3F)c12` [Compound 702], the IC50 is reported as over 10000 nM. Work on `Cc1c(C(=O)N2CCOCC2)nn2c1CN(c1nc(OCC34CCCN3CC(F)C4)nc3c(F)c(-c4ccc(F)c5sc(N)c(C#N)c45)c(C(F)(F)F)cc13)CC2` (stereo not shown) [Compound 741] yielded an IC50 of 100 to 1000 nM. For `CCN(c1nc(OC[C@@]23CCCN2C[C@H](F)C3)nc2c(F)c(-c3ccc(F)c4sc(N)c(C#N)c34)c(C(F)(F)F)cc12)[C@H]1CCN(C(=O)[C@@H]2C[C@@H]2C)C1` (atropisomer, axis not shown) [Compound 689], the IC50 was 100 to 1000 nM.

Source: patent US20260042764A1, “COMPOSITIONS AND METHODS FOR INHIBITION OF KRAS” (TheRas, Inc., priority 2022, published 2026)
